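Assay format: 96-well plates, 48-hour exposure. Abbreviation: GI50, concentration required for 50% inhibition of growth. TGI denotes the concentration required for complete inhibition of growth.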
Assays:
Assay in all cases: NCI-60 cell line screen, 48 h
786-0 renal = test system: 786-0 renal
A498 renal = test system: A498 renal
A549 NSCLC = test system: A549 NSCLC
ACHN renal = test system: ACHN renal
BT-549 breast = test system: BT-549 breast
CAKI-1 renal = test system: CAKI-1 renal
CCRF-CEM leukemia = test system: CCRF-CEM leukemia
COLO 205 colon = test system: COLO 205 colon
DU-145 prostate = test system: DU-145 prostate
EKVX NSCLC = test system: EKVX NSCLC
HCC-2998 colon = test system: HCC-2998 colon
HCT-116 colon = test system: HCT-116 colon
HCT-15 colon = test system: HCT-15 colon
HL-60(TB) leukemia = test system: HL-60(TB) leukemia
HOP-62 NSCLC = test system: HOP-62 NSCLC
HOP-92 NSCLC = test system: HOP-92 NSCLC
HS 578T breast = test system: HS 578T breast
HT29 colon = test system: HT29 colon
IGROV1 ovarian = test system: IGROV1 ovarian
K-562 leukemia = test system: K-562 leukemia
KM12 colon = test system: KM12 colon
LOX IMVI melanoma = test system: LOX IMVI melanoma
M14 melanoma = test system: M14 melanoma
MCF7 breast = test system: MCF7 breast
MDA-MB-231 breast = test system: MDA-MB-231 breast
MDA-MB-435 = test system: MDA-MB-435
MOLT-4 leukemia = test system: MOLT-4 leukemia
NCI-H226 lung = test system: NCI-H226 lung
NCI-H23 lung = test system: NCI-H23 lung
NCI-H460 lung = test system: NCI-H460 lung
NCI-H522 lung = test system: NCI-H522 lung
NCI/ADR-RES ovarian = test system: NCI/ADR-RES ovarian
OVCAR-3 ovarian = test system: OVCAR-3 ovarian
OVCAR-4 ovarian = test system: OVCAR-4 ovarian
OVCAR-5 ovarian = test system: OVCAR-5 ovarian
OVCAR-8 ovarian = test system: OVCAR-8 ovarian
PC-3 prostate = test system: PC-3 prostate
RPMI-8226 leukemia = test system: RPMI-8226 leukemia
RXF 393 renal = test system: RXF 393 renal
SF-268 CNS = test system: SF-268 CNS
SF-295 CNS = test system: SF-295 CNS
SK-MEL-2 melanoma = test system: SK-MEL-2 melanoma
SK-MEL-28 melanoma = test system: SK-MEL-28 melanoma
SK-MEL-5 melanoma = test system: SK-MEL-5 melanoma
SN12C renal = test system: SN12C renal
SNB-19 CNS = test system: SNB-19 CNS
SNB-75 CNS = test system: SNB-75 CNS
SR leukemia = test system: SR leukemia
SW-620 colon = test system: SW-620 colon
TK-10 renal = test system: TK-10 renal
U251 CNS = test system: U251 CNS
UACC-257 melanoma = test system: UACC-257 melanoma
UACC-62 melanoma = test system: UACC-62 melanoma
UO-31 renal = test system: UO-31 renal

Cc1cc(C)c(-c2cc(O)c(-c3c(C)cc(C)cc3C)cc2O)c(C)c1
GI50 (786-0 renal): 6.49 µM
TGI (786-0 renal): > 100 µM
GI50 (A498 renal): 2.58 µM
TGI (A498 renal): > 100 µM
GI50 (A549 NSCLC): 4.6 µM
TGI (A549 NSCLC): > 100 µM
GI50 (ACHN renal): 7.43 µM
TGI (ACHN renal): > 100 µM
GI50 (BT-549 breast): 6.39 µM
TGI (BT-549 breast): > 100 µM
GI50 (CAKI-1 renal): 4.23 µM
TGI (CAKI-1 renal): > 100 µM
GI50 (CCRF-CEM leukemia): 4.1 µM
TGI (CCRF-CEM leukemia): > 100 µM
GI50 (COLO 205 colon): 2.27 µM
TGI (COLO 205 colon): 5.68 µM
GI50 (DU-145 prostate): 3.35 µM
TGI (DU-145 prostate): 15.2 µM
GI50 (EKVX NSCLC): 5.83 µM
TGI (EKVX NSCLC): > 100 µM
GI50 (HCC-2998 colon): 2.9 µM
TGI (HCC-2998 colon): > 100 µM
GI50 (HCT-116 colon): 3.51 µM
TGI (HCT-116 colon): > 100 µM
GI50 (HCT-15 colon): 3.73 µM
TGI (HCT-15 colon): > 100 µM
GI50 (HL-60(TB) leukemia): 3.21 µM
TGI (HL-60(TB) leukemia): > 100 µM
GI50 (HOP-62 NSCLC): 4.55 µM
TGI (HOP-62 NSCLC): > 100 µM
GI50 (HOP-92 NSCLC): 37.2 µM
TGI (HOP-92 NSCLC): > 100 µM
GI50 (HS 578T breast): 3.29 µM
TGI (HS 578T breast): > 100 µM
GI50 (HT29 colon): 3.18 µM
TGI (HT29 colon): 65.1 µM
GI50 (IGROV1 ovarian): 4.18 µM
TGI (IGROV1 ovarian): > 100 µM
GI50 (K-562 leukemia): 2.91 µM
TGI (K-562 leukemia): > 100 µM
GI50 (KM12 colon): 2.19 µM
TGI (KM12 colon): > 100 µM
GI50 (LOX IMVI melanoma): 4.39 µM
TGI (LOX IMVI melanoma): > 100 µM
GI50 (M14 melanoma): 2.77 µM
TGI (M14 melanoma): > 100 µM
GI50 (MCF7 breast): 2.46 µM
TGI (MCF7 breast): > 100 µM
GI50 (MDA-MB-231 breast): 3.29 µM
TGI (MDA-MB-231 breast): 11.3 µM
GI50 (MDA-MB-435): 0.482 µM
TGI (MDA-MB-435): > 100 µM
GI50 (MOLT-4 leukemia): 6.93 µM
TGI (MOLT-4 leukemia): > 100 µM
GI50 (NCI-H226 lung): 38.7 µM
TGI (NCI-H226 lung): > 100 µM
GI50 (NCI-H23 lung): 4.05 µM
TGI (NCI-H23 lung): > 100 µM
GI50 (NCI-H460 lung): 3.45 µM
TGI (NCI-H460 lung): > 100 µM
GI50 (NCI-H522 lung): 1.74 µM
TGI (NCI-H522 lung): 4.46 µM
GI50 (NCI/ADR-RES ovarian): 4.33 µM
TGI (NCI/ADR-RES ovarian): > 100 µM
GI50 (OVCAR-3 ovarian): 2.05 µM
TGI (OVCAR-3 ovarian): 4.85 µM
GI50 (OVCAR-4 ovarian): 7.6 µM
TGI (OVCAR-4 ovarian): > 100 µM
GI50 (OVCAR-5 ovarian): 11.3 µM
TGI (OVCAR-5 ovarian): > 100 µM
GI50 (OVCAR-8 ovarian): 5.37 µM
TGI (OVCAR-8 ovarian): > 100 µM
GI50 (PC-3 prostate): 4.44 µM
TGI (PC-3 prostate): > 100 µM
GI50 (RPMI-8226 leukemia): 5.82 µM
TGI (RPMI-8226 leukemia): > 100 µM
GI50 (RXF 393 renal): 2.77 µM
TGI (RXF 393 renal): > 100 µM
GI50 (SF-268 CNS): 5.83 µM
TGI (SF-268 CNS): > 100 µM
GI50 (SF-295 CNS): 2.68 µM
TGI (SF-295 CNS): > 100 µM
GI50 (SK-MEL-2 melanoma): 4.55 µM
TGI (SK-MEL-2 melanoma): > 100 µM
GI50 (SK-MEL-28 melanoma): 8.14 µM
TGI (SK-MEL-28 melanoma): > 100 µM
GI50 (SK-MEL-5 melanoma): 1.61 µM
TGI (SK-MEL-5 melanoma): 31.2 µM
GI50 (SN12C renal): 5.52 µM
TGI (SN12C renal): > 100 µM
GI50 (SNB-19 CNS): 3.58 µM
TGI (SNB-19 CNS): > 100 µM
GI50 (SNB-75 CNS): 2.87 µM
TGI (SNB-75 CNS): > 100 µM
GI50 (SR leukemia): 2.43 µM
TGI (SR leukemia): > 100 µM
GI50 (SW-620 colon): 3.17 µM
TGI (SW-620 colon): > 100 µM
GI50 (TK-10 renal): > 100 µM
TGI (TK-10 renal): > 100 µM
GI50 (U251 CNS): 4.22 µM
TGI (U251 CNS): > 100 µM
GI50 (UACC-257 melanoma): > 100 µM
TGI (UACC-257 melanoma): > 100 µM
GI50 (UACC-62 melanoma): 3.18 µM
TGI (UACC-62 melanoma): > 100 µM
GI50 (UO-31 renal): 9.7 µM
TGI (UO-31 renal): > 100 µM

— PubChem BioAssay (NCI)
